# Data from patent publication US12637452B2, “Crystalline forms of a substituted imidazopyridine compound and use thereof as P2X3 modulator” (GlaxoSmithKline Intellectual Property (No. 3) Limited, priority 2018, dated 2026).
# How the values were obtained:
# Format in all cases: physicochemical
# [1] = Approximate solubility of starting material in 28 solvents at RT; conditions: 25 °C, thermodynamic from solid, starting material Form A0
# Protocol: Approximate solubility of starting material (Compound 1, Form A0) was determined in 28 solvents at RT (25±3° C.). ˜2 mg of the starting material was added into each 3-mL glass vial. Solvents were then added stepwise (50/50/200/700 μL per step) into the vials until the solids were dissolved visually or a total volume of 1 mL was reached. Solubility results summarized in Table 2 were used to guide the solvent selection in screening design.
# [2] = Dynamic vapor sorption (DVS) test, water uptake and form stability as a function of relative humidity
# Protocol: DVS test was performed using an SMS (Surface Measurement Systems) DVS Intrinsic instrument. The relative humidity were calibrated against deliquescence point of LiCl, Mg(NO3)2 and KCl. The following instrument parameters were used at 25° C. and 40° C.:
# DVS test was performed for Type A* family to investigate its form stability as a function of relative humidity. The DVS test was first conducted in a couple of cycles with different ends (30% and 95% RH) at 25° C. The samples were equilibrated at each RH point until wt % change was lower than 0.002% or the total time reached 3 hrs.
# The crystal forms after DVS test were detected by XRPD. For the cycle (ambient RH-95% RH-0% RH-30% RH), the crystal form after DVS test was determined to be Type A (FIG. 5), corresponding to the ambient humidity (61.5% RH) when performing XRPD analysis. While for the cycle (ambient RH-95% RH-0% RH-95% RH), Type A1 was observed after DVS test (FIG. 7), corresponding to the ambient humidity (66.3% RH) when performing XRPD analysis.
# DVS test was also conducted in the cycle (ambient RH-95% RH-0% RH-95% RH) at 40° C.
# [3] = Theoretical maxima water uptake of a monohydrate from the single crystal structure; conditions: only lattice waters considered
# Description: A single crystal structure of Compound 1 Type A* family (form Type A0) was collected using crystals grown in ACN/H2O (1:3, v/v). Data were collected at 123 K using a Bruker D8 VENTURE diffractometer (Mo/Kα λ=0.71073 Å) with the following instrument parameters:
# From the single crystal structure, there are four possible hydration sites in the unit cell. If each of the hydration sites is occupied by one water molecule, a monohydrate would be expected, which should correspond to the theoretical maxima water incorporation in the crystal lattice of Type A* family crystals. For a monohydrate, if only lattice waters are considered, the theoretical maxima water uptake is 3.9%, which is very close to the experimental DVS results (˜4.1-4.2% at 100% RH at 25° C.). In addition, there may be less than one water molecule on each hydration site because of the disorder, and a stoichiometry of less than 1:1 for water:API may be expected in an actual Type A* family crystal which is consistent with the almost linear increase/decrease of water content as a function of humidity in the DVS test.
structure (smiles),measurement,setting,value
"CNC(=O)c1cc(F)c(-c2nc3cc(C)ccn3c2C[C@H]2CN(C(=O)OC)CCO2)c(F)c1 [Compound 1, methyl (S)-2-((2-(2,6-difluoro-4-(methylcarbamoyl)phenyl)-7-methylimidazo[1,2-a]pyridin-3-yl)methyl)morpholine-4-carboxylate]",solubility,"[1]; organic solvent or mixture, solvent 1,2-Dichloroethane, RT (25±3° C.)",> 38000 µg/mL
same,solubility,"[1]; organic solvent or mixture, solvent 1,4-Dioxane, RT (25±3° C.)",2400 to 8000 µg/mL
same,solubility,"[1]; organic solvent or mixture, solvent 1-Propanol, RT (25±3° C.)",> 38000 µg/mL
same,solubility,"[1]; organic solvent or mixture, solvent 2-MeTHF, RT (25±3° C.)",1800 to 6000 µg/mL
same,solubility,"[1]; organic solvent or mixture, solvent ACN, RT (25±3° C.)",20000 to 40000 µg/mL
same,solubility,"[1]; organic solvent or mixture, solvent Acetone, RT (25±3° C.)",19000 to 38000 µg/mL
same,solubility,"[1]; organic solvent or mixture, solvent Anisole, RT (25±3° C.)",2000 to 6700 µg/mL
same,solubility,"[1]; organic solvent or mixture, solvent Butyl acetate, RT (25±3° C.)",< 2400 µg/mL
same,solubility,"[1]; organic solvent or mixture, solvent CHCl3, RT (25±3° C.)",> 40000 µg/mL
same,solubility,"[1]; organic solvent or mixture, solvent DCM, RT (25±3° C.)",> 40000 µg/mL
same,solubility,"[1]; organic solvent or mixture, solvent DMF, RT (25±3° C.)",> 38000 µg/mL
same,solubility,"[1]; organic solvent or mixture, solvent DMSO, RT (25±3° C.)",> 48000 µg/mL
same,solubility,"[1]; organic solvent or mixture, solvent Diethyleneglycol, RT (25±3° C.)",2400 to 8000 µg/mL
same,solubility,"[1]; organic solvent or mixture, solvent Dimethoxyethane, RT (25±3° C.)",6700 to 20000 µg/mL
same,solubility,"[1]; organic solvent or mixture, solvent EtOAc, RT (25±3° C.)",< 2000 µg/mL
same,solubility,"[1]; organic solvent or mixture, solvent EtOH, RT (25±3° C.)",> 46000 µg/mL
same,solubility,"[1]; organic solvent or mixture, solvent IPA, RT (25±3° C.)",20000 to 40000 µg/mL
same,solubility,"[1]; organic solvent or mixture, solvent IPAc, RT (25±3° C.)",< 1900 µg/mL
same,solubility,"[1]; organic solvent or mixture, solvent MEK, RT (25±3° C.)",7700 to 23000 µg/mL
same,solubility,"[1]; organic solvent or mixture, solvent MIBK, RT (25±3° C.)",< 2200 µg/mL
same,solubility,"[1]; organic solvent or mixture, solvent MTBE, RT (25±3° C.)",< 2200 µg/mL
same,solubility,"[1]; organic solvent or mixture, solvent MeOH, RT (25±3° C.)",> 44000 µg/mL
same,solubility,"[1]; organic solvent or mixture, solvent THF, RT (25±3° C.)",> 46000 µg/mL
same,solubility,"[1]; organic solvent or mixture, solvent Toluene, RT (25±3° C.)",< 2000 µg/mL
same,solubility,"[1]; organic solvent or mixture, solvent n-Butanol, RT (25±3° C.)",> 42000 µg/mL
same,solubility,"[1]; organic solvent or mixture, solvent n-Heptane, RT (25±3° C.)",< 1900 µg/mL
same,solubility,"[1]; organic solvent or mixture, solvent n-Hexane, RT (25±3° C.)",< 2200 µg/mL
same,solubility,"[1]; water, solvent H2O, RT (25±3° C.)",< 2400 µg/mL
"CNC(=O)c1cc(F)c(-c2nc3cc(C)ccn3c2C[C@H]2CN(C(=O)OC)CCO2)c(F)c1 [Type A* family, methyl (S)-2-((2-(2,6-difluoro-4-(methylcarbamoyl)phenyl)-7-methylimidazo[1,2-a]pyridin-3-yl)methyl)morpholine-4-carboxylate]",crystal form after DVS test (XRPD),"[2]; 25° C., cycle ambient RH-95% RH-0% RH-30% RH, ambient humidity 61.5% RH at XRPD analysis",Type A
same,crystal form after DVS test (XRPD),"[2]; 25° C., cycle ambient RH-95% RH-0% RH-95% RH, ambient humidity 66.3% RH at XRPD analysis",Type A1
same,crystal form after DVS test (XRPD),"[2]; 40° C., cycle ambient RH-95% RH-0% RH-95% RH, ambient humidity 69.5% RH at XRPD test",Type A1
same,"water uptake, experimental DVS results",[2]; at 100% RH at 25° C.,4.1-4.2%
same,theoretical maxima water uptake,[3],3.9%
